In PubChem BioAssay (NCI):
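96-well plates; 48 h exposure; 5 concentrations. Endpoints by linear interpolation between flanking doses. Not reached: highest tested concentration assigned. TGI denotes the concentration required for complete inhibition of growth.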

Legend:
Assay in all cases: NCI tumour cell line growth inhibition, 48 h
OVCAR-8 ovarian = test system: OVCAR-8 ovarian
NCI-H460 lung = test system: NCI-H460 lung
P388/ADR leukemia = test system: P388/ADR leukemia
HCC-2998 colon = test system: HCC-2998 colon
COLO 205 colon = test system: COLO 205 colon
SNB-78 CNS = test system: SNB-78 CNS
OVCAR-4 ovarian = test system: OVCAR-4 ovarian
M19-MEL melanoma = test system: M19-MEL melanoma
UO-31 renal = test system: UO-31 renal
HT29 colon = test system: HT29 colon
P388 leukemia = test system: P388 leukemia
SK-MEL-28 melanoma = test system: SK-MEL-28 melanoma
SK-MEL-5 melanoma = test system: SK-MEL-5 melanoma
SNB-19 CNS = test system: SNB-19 CNS
UACC-62 melanoma = test system: UACC-62 melanoma
SN12C renal = test system: SN12C renal
HOP-62 NSCLC = test system: HOP-62 NSCLC
SK-MEL-2 melanoma = test system: SK-MEL-2 melanoma
A549 NSCLC = test system: A549 NSCLC
SF-539 CNS = test system: SF-539 CNS
U251 CNS = test system: U251 CNS
IGROV1 ovarian = test system: IGROV1 ovarian
LOX IMVI melanoma = test system: LOX IMVI melanoma
K-562 leukemia = test system: K-562 leukemia
SF-268 CNS = test system: SF-268 CNS
HOP-18 NSCLC = test system: HOP-18 NSCLC
SW-620 colon = test system: SW-620 colon
RPMI-8226 leukemia = test system: RPMI-8226 leukemia
NCI-H226 lung = test system: NCI-H226 lung
NCI/ADR-RES ovarian = test system: NCI/ADR-RES ovarian
DLD-1 colon = test system: DLD-1 colon
DMS 273 small cell lung = test system: DMS 273 small cell lung
MOLT-4 leukemia = test system: MOLT-4 leukemia
NCI-H522 lung = test system: NCI-H522 lung
SF-295 CNS = test system: SF-295 CNS
MALME-3M melanoma = test system: MALME-3M melanoma
HL-60(TB) leukemia = test system: HL-60(TB) leukemia
HCT-15 colon = test system: HCT-15 colon
KM12 colon = test system: KM12 colon
OVCAR-5 ovarian = test system: OVCAR-5 ovarian
SN12K1 renal = test system: SN12K1 renal
KM20L2 colon = test system: KM20L2 colon
UACC-257 melanoma = test system: UACC-257 melanoma
MCF7 breast = test system: MCF7 breast
SK-OV-3 ovarian = test system: SK-OV-3 ovarian
CCRF-CEM leukemia = test system: CCRF-CEM leukemia
A498 renal = test system: A498 renal
SNB-75 CNS = test system: SNB-75 CNS
CAKI-1 renal = test system: CAKI-1 renal
NCI-H23 lung = test system: NCI-H23 lung
HOP-92 NSCLC = test system: HOP-92 NSCLC
M14 melanoma = test system: M14 melanoma
TK-10 renal = test system: TK-10 renal
LXFL 529 NSCLC = test system: LXFL 529 NSCLC
DMS 114 small cell lung = test system: DMS 114 small cell lung
ACHN renal = test system: ACHN renal
SR leukemia = test system: SR leukemia
HCT-116 colon = test system: HCT-116 colon
786-0 renal = test system: 786-0 renal
OVCAR-3 ovarian = test system: OVCAR-3 ovarian
EKVX NSCLC = test system: EKVX NSCLC
XF 498 CNS = test system: XF 498 CNS
RXF-631 renal = test system: RXF-631 renal
RXF 393 renal = test system: RXF 393 renal

## Cc1n(CC(C)C)c2c([n+]1CC(=O)c1ccc([N+](=O)[O-])cc1)C(=O)c1ccccc1C2=O
OVCAR-8 ovarian
  TGI: 476 nM
NCI-H460 lung
  TGI: 1380 nM
P388/ADR leukemia
  TGI: 61300 nM
HCC-2998 colon
  TGI: 1180 nM
COLO 205 colon
  TGI: < 10 nM
SNB-78 CNS
  TGI: 107 nM
OVCAR-4 ovarian
  TGI: 55 nM
M19-MEL melanoma
  TGI: < 17.5 nM
UO-31 renal
  TGI: 30200 nM
HT29 colon
  TGI: 550 nM
P388 leukemia
  TGI: 563 nM
SK-MEL-28 melanoma
  TGI: 902 nM
SK-MEL-5 melanoma
  TGI: < 30.9 nM
SNB-19 CNS
  TGI: 104 nM
UACC-62 melanoma
  TGI: 104 nM
SN12C renal
  TGI: 10.7 nM
HOP-62 NSCLC
  TGI: 1150 nM
SK-MEL-2 melanoma
  TGI: 83.7 nM
A549 NSCLC
  TGI: 933 nM
SF-539 CNS
  TGI: < 38.7 nM
U251 CNS
  TGI: 34 nM
IGROV1 ovarian
  TGI: 10.2 nM
LOX IMVI melanoma
  TGI: 131 nM
K-562 leukemia
  TGI: 1330 nM
SF-268 CNS
  TGI: < 39.1 nM
HOP-18 NSCLC
  TGI: 202 nM
SW-620 colon
  TGI: < 36 nM
RPMI-8226 leukemia
  TGI: 757 nM
NCI-H226 lung
  TGI: 52.3 nM
NCI/ADR-RES ovarian
  TGI: 2910 nM
DLD-1 colon
  TGI: 797 nM
DMS 273 small cell lung
  TGI: 161 nM
MOLT-4 leukemia
  TGI: 74.2 nM
NCI-H522 lung
  TGI: < 10 nM
SF-295 CNS
  TGI: 1510 nM
MALME-3M melanoma
  TGI: < 20.5 nM
HL-60(TB) leukemia
  TGI: < 10 nM
HCT-15 colon
  TGI: 15600 nM
KM12 colon
  TGI: 386 nM
OVCAR-5 ovarian
  TGI: 69.8 nM
SN12K1 renal
  TGI: 279 nM
KM20L2 colon
  TGI: 113 nM
UACC-257 melanoma
  TGI: 29.3 nM
MCF7 breast
  TGI: < 10 nM
SK-OV-3 ovarian
  TGI: 869 nM
CCRF-CEM leukemia
  TGI: 4940 nM
A498 renal
  TGI: 2210 nM
SNB-75 CNS
  TGI: 641 nM
CAKI-1 renal
  TGI: 1130 nM
NCI-H23 lung
  TGI: < 14.2 nM
HOP-92 NSCLC
  TGI: 128 nM

## O=c1[nH]c(=O)n(C2OC(CO)C(O)C2O)cc1OCc1ccccc1 (stereo not given)
OVCAR-8 ovarian
  TGI: > 100000 nM
NCI-H460 lung
  TGI: > 100000 nM
M14 melanoma
  TGI: > 100000 nM
HCC-2998 colon
  TGI: > 100000 nM
COLO 205 colon
  TGI: > 85200 nM
SNB-78 CNS
  TGI: > 100000 nM
OVCAR-4 ovarian
  TGI: > 100000 nM
M19-MEL melanoma
  TGI: > 100000 nM
UO-31 renal
  TGI: > 100000 nM
HT29 colon
  TGI: > 100000 nM
SK-MEL-28 melanoma
  TGI: > 100000 nM
TK-10 renal
  TGI: > 100000 nM
SK-MEL-5 melanoma
  TGI: > 100000 nM
SNB-19 CNS
  TGI: > 100000 nM
UACC-62 melanoma
  TGI: > 100000 nM
SN12C renal
  TGI: > 100000 nM
HOP-62 NSCLC
  TGI: > 100000 nM
SK-MEL-2 melanoma
  TGI: > 100000 nM
A549 NSCLC
  TGI: > 100000 nM
SF-539 CNS
  TGI: > 100000 nM
U251 CNS
  TGI: > 72200 nM
IGROV1 ovarian
  TGI: > 100000 nM
LOX IMVI melanoma
  TGI: > 31600 nM
K-562 leukemia
  TGI: > 100000 nM
SF-268 CNS
  TGI: > 100000 nM
LXFL 529 NSCLC
  TGI: > 100000 nM
HOP-18 NSCLC
  TGI: > 100000 nM
DMS 114 small cell lung
  TGI: > 72200 nM
SW-620 colon
  TGI: > 71800 nM
ACHN renal
  TGI: > 100000 nM
RPMI-8226 leukemia
  TGI: > 73300 nM
NCI-H226 lung
  TGI: > 100000 nM
DLD-1 colon
  TGI: > 78000 nM
DMS 273 small cell lung
  TGI: > 100000 nM
MOLT-4 leukemia
  TGI: > 100000 nM
NCI-H522 lung
  TGI: > 100000 nM
SR leukemia
  TGI: > 67500 nM
HCT-116 colon
  TGI: > 83200 nM
SF-295 CNS
  TGI: > 100000 nM
786-0 renal
  TGI: > 100000 nM
MALME-3M melanoma
  TGI: > 100000 nM
OVCAR-3 ovarian
  TGI: > 100000 nM
HL-60(TB) leukemia
  TGI: > 68600 nM
HCT-15 colon
  TGI: > 77700 nM
KM12 colon
  TGI: > 100000 nM
OVCAR-5 ovarian
  TGI: > 100000 nM
KM20L2 colon
  TGI: > 100000 nM
EKVX NSCLC
  TGI: > 100000 nM
UACC-257 melanoma
  TGI: > 100000 nM
XF 498 CNS
  TGI: > 100000 nM
RXF-631 renal
  TGI: > 100000 nM
SK-OV-3 ovarian
  TGI: > 100000 nM
RXF 393 renal
  TGI: > 83500 nM
CCRF-CEM leukemia
  TGI: > 78100 nM
A498 renal
  TGI: > 100000 nM
SNB-75 CNS
  TGI: > 100000 nM
CAKI-1 renal
  TGI: > 100000 nM
NCI-H23 lung
  TGI: > 100000 nM
HOP-92 NSCLC
  TGI: > 100000 nM
